Test: IC50 test to confirm desired/undesired isomer (assay not specified)
Conditions: qualitative outcome only, no number given

| tested for IC50 to confirm as desired / undesired compound (hydrochloride) | tested for IC50 to confirm as desired / undesired compound | SMILES |
| --- | --- | --- |
| undesired isomer | – | Cl.O=C(O)CC1C(c2ccc(OCCc3ccc4c(n3)NCCC4)cc2)C1(Cl)Cl (single isomer, unassigned) [Example 85, first peak, (2,2-Dichloro-3-{4-[2-(5,6,7,8-tetrahydro-1,8-naphthyridin-2-yl)ethoxy]phenyl}cyclopropyl)acetic acid hydrochloride] |
| desired compound | – | Cl.O=C(O)CC1C(c2ccc(OCCc3ccc4c(n3)NCCC4)cc2)C1(Cl)Cl (single isomer, unassigned) [Example 85, second peak, (2,2-Dichloro-3-{4-[2-(5,6,7,8-tetrahydro-1,8-naphthyridin-2-yl)ethoxy]phenyl}cyclopropyl)acetic acid hydrochloride] |
| – | desired compound | CN1CCNc2nc(CCOc3ccc(C4CC4CC(=O)O)cc3)ccc21 (single isomer, unassigned; (+)) [Example 81, ((+)-2-{4-[2-(1-methyl-1,2,3,4-tetrahydropyrido[2,3-b]pyrazin-^6-yl)ethoxy]phenyl}cyclopropyl)acetic acid] |
| – | undesired compound | CN1CCNc2nc(CCOc3ccc(C4CC4CC(=O)O)cc3)ccc21 (single isomer, unassigned; (-)) [Example 82, ((−)-2-{4-[2-(1-methyl-1,2,3,4-tetrahydropyrido[2,3-b]pyrazin-6-yl)ethoxy]phenyl}cyclopropyl)acetic acid] |
